Reference: patent publication US10722501B2 (BAYER AKTIENGESELLSCHAFT, priority 2016, dated 2020)

Target: T1, recombinant full-length human prolyl endopeptidase (PREP) (Homo sapiens, UniProt P48147)
T1 construct: To recombinant full-length human prolyl endopeptidase (PREP, R&D-Systems, 4308-SE); purchased R&D-Systems 4308-SE
T1 sequence (P48147 1-710): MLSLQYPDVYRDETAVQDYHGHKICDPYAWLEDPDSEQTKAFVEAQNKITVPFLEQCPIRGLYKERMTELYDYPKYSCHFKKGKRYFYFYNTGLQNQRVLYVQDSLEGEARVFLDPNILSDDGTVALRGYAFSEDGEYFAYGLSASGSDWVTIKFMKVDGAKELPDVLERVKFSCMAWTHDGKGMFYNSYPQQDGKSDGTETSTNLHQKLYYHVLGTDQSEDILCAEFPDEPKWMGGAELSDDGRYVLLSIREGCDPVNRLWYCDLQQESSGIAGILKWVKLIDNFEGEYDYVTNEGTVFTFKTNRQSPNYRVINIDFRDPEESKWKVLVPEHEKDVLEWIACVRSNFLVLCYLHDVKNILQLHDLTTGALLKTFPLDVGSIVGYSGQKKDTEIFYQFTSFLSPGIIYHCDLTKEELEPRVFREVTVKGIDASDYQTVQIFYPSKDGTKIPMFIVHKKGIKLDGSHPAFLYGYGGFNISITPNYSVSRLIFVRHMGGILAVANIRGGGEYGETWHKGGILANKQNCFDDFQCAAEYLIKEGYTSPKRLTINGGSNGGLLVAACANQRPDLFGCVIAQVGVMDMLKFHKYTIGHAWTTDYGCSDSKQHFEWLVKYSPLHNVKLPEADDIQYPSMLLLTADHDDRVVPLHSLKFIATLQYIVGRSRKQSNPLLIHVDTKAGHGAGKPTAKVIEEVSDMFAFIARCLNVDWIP
Test: Biochemical human prolyl endopeptidase (PREP) assay with fluorescently labelled substrate
Conditions: substrate Z-Gly-Pro-AMC 50 μM, 32° C., 60 min; some as mean values from multiple independent determinations
Procedure, shortened: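 0.4 nM (final, example) recombinant PREP in pH 7.5 Tris buffer with EDTA, GSH, BSA and Brij-35; compounds at 1 nM to 30 μM. Reaction started with 50 μM Z-Gly-Pro-AMC and followed by fluorescence (ex 360/em 465 nm) at 32° C for 60 min. IC50 interpolated from percent activity based on initial slopes.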

SMILES	IC50
O=C(C1CC(C(F)(F)F)Cc2nn(Cc3ncc(C(F)(F)F)cc3Cl)c(=O)n21)N1CC[C@H](F)C1 (mixture of isomers) [Example 562, (5RS,7RS)-2-{[3-Chloro-5-(trifluoromethyl)pyridin-2-yl]methyl}-5-{[(3S)-3-fluoropyrrolidin-1-yl]carbonyl}-7-(trifluoromethyl)-5,6,7,8-tetrahydro[1,2,4]triazolo[4,3-a]pyridin-3(2H)-one]	1.33 nM
O=C(C1CC(C(F)(F)F)Cc2nn(Cc3ncc(F)cc3F)c(=O)n21)N1CC[C@H](F)C1 (mixture of isomers) [Example 569, (5RS,7RS)-2-[(3,5-Difluoropyridin-2-yl)methyl]-5-{[(3S)-3-fluoropyrrolidin-1-yl]carbonyl}-7-(trifluoromethyl)-5,6,7,8-tetrahydro[1,2,4]triazolo[4,3-a]pyridin-3(2H)-one]	0.85 nM
O=C(C1CC(C(F)(F)F)Cc2nn(Cc3ncc(F)cc3F)c(=O)n21)N1CCC(F)(F)C1 (racemic) [Example 573, (5RS,7RS)-2-[(3,5-Difluoropyridin-2-yl)methyl]-5-[(3,3-difluoropyrrolidin-1-yl)carbonyl]-7-(trifluoromethyl)-5,6,7,8-tetrahydro[1,2,4]triazolo[4,3-a]pyridin-3(2H)-one]	5.9 nM
O=C(C1CC(C(F)(F)F)Cc2nn(Cc3ccc(C(F)(F)F)nc3)c(=O)n21)N1CC(F)C(F)C1 (racemic) [Example 582, (5RS,7RS)-5-{[rel-(3R,4R)-3,4-Difluoropyrrolidin-1-yl]carbonyl}-7-(trifluoromethyl)-2-{[6-(trifluoromethyl)pyridin-3-yl]methyl}-5,6,7,8-tetrahydro[1,2,4]triazolo[4,3-a]pyridin-3(2H)-one]	140 nM
CC(c1ccc(Cl)cc1)n1nc2n(c1=O)C(C(=O)N1CCCC1)CCC2 (single isomer, unassigned) [Example 5, (5RS)-2-[(1 RS)-1-(4-Chlorophenyl)ethyl]-5-(pyrrolidin-1-ylcarbonyl)-5,6,7,8-tetrahydro[1,2,4]triazolo[4,3-a]pyridin-3(2H)-one]	8 nM
O=C(C1CCCc2nn(Cc3ccc(Cl)cn3)c(=O)n21)N1CCCC1 (single isomer, unassigned) [Example 34, (5RS)-2-[(5-Chloropyridin-2-yl)methyl]-5-(pyrrolidin-1-ylcarbonyl)-5,6,7,8-tetrahydro[1,2,4]triazolo[4,3-a]pyridin-3(2H)-one]	7.5 nM
O=C(C1CCCc2nn(Cc3ccc(C(F)(F)F)nc3)c(=O)n21)N1CCCC1 (single isomer, unassigned) [Example 85, (5RS)-5-(Pyrrolidin-1-ylcarbonyl)-2-{[6-(trifluoromethyl)pyridin-3-yl]methyl}-5,6,7,8-tetrahydro[1,2,4]triazolo[4,3-a]pyridin-3(2H)-one]	2.1 nM
O=C(C1CCCc2nn(Cc3cccc(C(F)(F)F)c3)c(=O)n21)N1CC(O)C1 (single isomer, unassigned) [Example 98, (5RS)-5-[(3-Hydroxyazetidin-1-yl)carbonyl]-2-[3-(trifluoromethyl)benzyl]-5,6,7,8-tetrahydro[1,2,4]triazolo[4,3-a]pyridin-3(2H)-one]	257 nM
Cc1nc(C)c(Cn2nc3n(c2=O)C(C(=O)N2CCCC2)CCC3)nc1C (single isomer, unassigned) [Example 104, (5RS)-5-(Pyrrolidin-1-ylcarbonyl)-2-[(3,5,6-trimethylpyrazin-2-yl)methyl]-5,6,7,8-tetrahydro[1,2,4]triazolo[4,3-a]pyridin-3(2H)-one]	0.46 nM
O=C(C1CCCc2nn(Cc3cc(C(F)(F)F)c(Cl)cn3)c(=O)n21)N1CCCC1 (single isomer, unassigned) [Example 107]	2.1 nM
Cc1ccc(Cn2nc3n(c2=O)C(C(=O)N2CC(F)(F)C2)CCC3)cc1 (single isomer, unassigned) [Example 115, (5RS)-5-[(3,3-Difluoroazetidin-1-yl)carbonyl]-2-(4-methylbenzyl)-5,6,7,8-tetrahydro[1,2,4]triazolo[4,3-a]pyridin-3(2H)-one]	1.1 nM

Further lines, results first:

IC50	SMILES
0.37 nM	O=C(C1CCCc2nn(Cc3ccc(Cl)nc3)c(=O)n21)N1CC[C@H](F)C1 (mixture of isomers) [Example 561, (5RS)-2-[(6-Chlorpyridin-3-yl)methyl]-5-{[(3S)-3-fluorpyrrolidin-1-yl]carbonyl}-5,6,7,8-tetrahydro[1,2,4]triazolo[4,3-a]pyridin-3(2H)-on]
4.4 nM	O=C(C1CC(C(F)(F)F)Cc2nn(Cc3ncc(C(F)(F)F)cc3Cl)c(=O)n21)N1CCC(F)(F)C1 (racemic) [Example 564, (5RS,7RS)-2-{[3-Chloro-5-(trifluoromethyl)pyridin-2-yl]methyl}-5-[(3,3-difluoropyrolidin-1-yl)carbonyl]-7-(trifluoromethyl)-5,6,7,8-tetrahydro[1,2,4]triazolo[4,3-a]pyridin-3(2H)-one]
4.1 nM	O=C(C1CC(C(F)(F)F)Cc2nn(Cc3ccc(Cl)cn3)c(=O)n21)N1CCC(F)(F)C1 (racemic) [Example 566, (5RS,7RS)-2-[(5-Chloropyridin-2-yl)methyl]-5-[(3,3-difluoropyrrolidin-1-yl)carbonyl]-7-(trifluoromethyl)-5,6,7,8-tetrahydro[1,2,4]triazolo[4,3-a]pyridin-3(2H)-one]
1.1 nM	O=C(C1CC(C(F)(F)F)Cc2nn(Cc3ncc(F)cc3Cl)c(=O)n21)N1CC[C@H](F)C1 (mixture of isomers) [Example 571, (5RS,7RS)-2-[(3-Chloro-5-fluoropyridin-2-yl)methyl]-5-{[(3S)-3-fluoropyrrolidin-1-yl]carbonyl}-7-(trifluoromethyl)-5,6,7,8-tetrahydro[1,2,4]triazolo[4,3-a]pyridin-3(2H)-one]
7.4 nM	O=C(C1CC(C(F)(F)F)Cc2nn(Cc3ncc(F)cc3Cl)c(=O)n21)N1CCC(F)(F)C1 (racemic) [Example 575, (5RS,7RS)-2-[(3-Chloro-5-fluoropyridin-2-yl)methyl]-5-[(3,3-difluoropyrrolidin-1-yl)carbonyl]-7-(trifluoromethyl)-5,6,7,8-tetrahydro[1,2,4]triazolo[4,3-a]pyridin-3(2H)-one]
2.2 nM	CC(c1ccc(Cl)cc1)n1nc2n(c1=O)C(C(=O)N1CCCC1)CCC2 (single isomer, unassigned) [Example 4, (5RS)-2-[(1 RS)-1-(4-Chlorophenyl)ethyl]-5-(pyrrolidin-1-ylcarbonyl)-5,6,7,8-tetrahydro[1,2,4]triazolo[4,3-a]pyridin-3(2H)-one]
1.48 nM	O=C(C1CCCc2nn(Cc3ccc(Cl)nc3)c(=O)n21)N1CCCC1 (single isomer, unassigned) [Example 32, (5RS)-2-[(6-Chloropyridin-3-yl)methyl]-5-(pyrrolidin-1-ylcarbonyl)-5,6,7,8-tetrahydro[1,2,4]triazolo[4,3-a]pyridin-3(2H)-one]
3 nM	Cc1ccc(Cn2nc3n(c2=O)C(C(=O)N2CC[C@H](O)C2)CCC3)cc1 (single isomer, unassigned) [Example 116]
1.4 nM	Cc1ccc(Cn2nc3n(c2=O)C(C(=O)N2CCC(=O)C2)CCC3)cc1 (single isomer, unassigned) [Example 119, (5RS)-2-(4-Methylbenzyl)-5-[(3-oxopyrrolidin-1-yl)carbonyl]-5,6,7,8-tetrahydro[1,2,4]triazolo[4,3-a]pyridin-3(2H)-one]
